Assay results taken from ChEMBL document CHEMBL4813981, “Synthesis and in vitro antibacterial activity of new aminothiazole-oximepiperidone cephalosporins” (2021).
Converted amounts (≈) assume the structure as drawn.

Legend:
Pseudomonas aeruginosa [1] = assay: Ratio of MBC to MIC for carbapenem-sensitive Pseudomonas aeruginosa 17-29 assessed as reduction in bacterial growth in the presence of Avibactam; assay type: functional
Pseudomonas aeruginosa [2] = assay: Ratio of MBC to MIC for Pseudomonas aeruginosa ATCC 27853 assessed as reduction in bacterial growth in the presence of Avibactam; assay type: functional
Klebsiella aerogenes [3] = assay: Ratio of MBC to MIC for Enterobacter aerogenes 15-4 assessed as reduction in bacterial growth in the presence of Avibactam; assay type: functional
Klebsiella aerogenes [4] = assay: Ratio of MBC to MIC for Enterobacter aerogenes 15-3 assessed as reduction in bacterial growth in the presence of Avibactam; assay type: functional
Enterobacter cloacae [5] = assay: Antibacterial activity against Enterobacter cloacae 17-6 assessed as reduction in bacterial growth in the presence of Avibactam; assay type: functional
Klebsiella pneumoniae [6] = assay: Antibacterial activity against ESBLs positive Carbapenem-sensitive Klebsiella pneumoniae 17-13 assessed as reduction in bacterial growth in the presence of Avibactam; assay type: functional
Escherichia coli [7] = assay: Antibacterial activity against ESBLs negative Carbapenem-sensitive Escherichia coli 17-9 assessed as reduction in bacterial growth in the presence of Avibactam; assay type: functional
Escherichia coli [8] = assay: Ratio of MBC to MIC for ESBLs negative carbapenem-negative Escherichia coli 17-20 assessed as reduction in bacterial growth in the presence of Avibactam; assay type: functional
Pseudomonas aeruginosa [9] = assay: Ratio of MBC to MIC for carbapenem-sensitive Pseudomonas aeruginosa 17-7 assessed as reduction in bacterial growth; assay type: functional
Enterobacter cloacae [10] = assay: Ratio of MBC to MIC for Enterobacter cloacae 17-3 assessed as reduction in bacterial growth; assay type: functional
Enterobacter cloacae [11] = assay: Ratio of MBC to MIC for Enterobacter cloacae 17-10 assessed as reduction in bacterial growth in the presence of Avibactam; assay type: functional
Enterobacter cloacae [12] = assay: Antibacterial activity against Enterobacter cloacae 17-9 assessed as reduction in bacterial growth
Klebsiella pneumoniae [13] = assay: Ratio of MBC to MIC for ESBLs positive Carbapenem-sensitive Klebsiella pneumoniae 17-2 assessed as reduction in bacterial growth in the presence of Avibactam; assay type: functional
Klebsiella pneumoniae [14] = assay: Antibacterial activity against ESBLs positive Carbapenem-sensitive Klebsiella pneumoniae 17-5 assessed as reduction in bacterial growth in the presence of Avibactam; assay type: functional
Klebsiella pneumoniae [15] = assay: Ratio of MBC to MIC for Klebsiella pneumoniae ATCC BAA-1705 assessed as reduction in bacterial growth in the presence of Avibactam; assay type: functional
Klebsiella aerogenes [16] = assay: Ratio of MBC to MIC for Enterobacter aerogenes 17-4 assessed as reduction in bacterial growth; assay type: functional
Escherichia coli [17] = assay: Antibacterial activity against ESBLs positive Carbapenem-sensitive Escherichia coli 17-12 assessed as reduction in bacterial growth in the presence of Avibactam; assay type: functional
Klebsiella pneumoniae [18] = assay: Ratio of MBC to MIC for ESBLs positive Carbapenem-sensitive Klebsiella pneumoniae 17-6 assessed as reduction in bacterial growth in the presence of Avibactam; assay type: functional
Escherichia coli [19] = assay: Antibacterial activity against ESBLs negative Carbapenem-sensitive Escherichia coli 17-20 assessed as reduction in bacterial growth in the presence of Avibactam; assay type: functional
Escherichia coli [20] = assay: Antibacterial activity against ESBLs positive Carbapenem-sensitive Escherichia coli 17-10 assessed as reduction in bacterial growth
Escherichia coli [21] = assay: Ratio of MBC to MIC for ESBLs negative carbapenem-negative Escherichia coli 17-7 assessed as reduction in bacterial growth in the presence of Avibactam; assay type: functional
Pseudomonas aeruginosa [22] = assay: Ratio of MBC to MIC for carbapenem-sensitive Pseudomonas aeruginosa 17-10 assessed as reduction in bacterial growth; assay type: functional
Escherichia coli [23] = assay: Ratio of MBC to MIC for Escherichia coli ATCC 25922 assessed as reduction in bacterial growth; assay type: functional
Escherichia coli [24] = assay: Ratio of MBC to MIC for Escherichia coli NCTC 13353 assessed as reduction in bacterial growth in the presence of Avibactam; assay type: functional
Pseudomonas aeruginosa [25] = assay: Ratio of MBC to MIC for carbapenem-sensitive Pseudomonas aeruginosa 17-9 assessed as reduction in bacterial growth in the presence of Avibactam; assay type: functional
Klebsiella aerogenes [26] = assay: Ratio of MBC to MIC for Enterobacter aerogenes 15-4 assessed as reduction in bacterial growth; assay type: functional
Klebsiella pneumoniae [27] = assay: Ratio of MBC to MIC for ESBLs positive Carbapenem-sensitive Klebsiella pneumoniae 17-2 assessed as reduction in bacterial growth; assay type: functional
Klebsiella pneumoniae [28] = assay: Antibacterial activity against ESBLs negative Carbapenem-sensitive Klebsiella pneumoniae 17-19 assessed as reduction in bacterial growth in the presence of Avibactam; assay type: functional
Escherichia coli [29] = assay: Antibacterial activity against ESBLs positive Carbapenem-sensitive Escherichia coli 17-21 assessed as reduction in bacterial growth in the presence of Avibactam; assay type: functional
Enterobacter cloacae [30] = assay: Antibacterial activity against Enterobacter cloacae 17-4 assessed as reduction in bacterial growth in the presence of Avibactam; assay type: functional
Pseudomonas aeruginosa [31] = assay: Ratio of MBC to MIC for carbapenem-sensitive Pseudomonas aeruginosa 17-10 assessed as reduction in bacterial growth in the presence of Avibactam; assay type: functional
Klebsiella pneumoniae [32] = assay: Antibacterial activity against ESBLs negative Carbapenem-sensitive Klebsiella pneumoniae 15-2 assessed as reduction in bacterial growth in the presence of Avibactam; assay type: functional
Acinetobacter baumannii [33] = assay: Ratio of MBC to MIC for Carbapenem- resistant Acinetobacter baumannii 17-11 assessed as reduction in bacterial growth in the presence of Avibactam; assay type: functional
Escherichia coli [34] = assay: Antibacterial activity against ESBLs negative Carbapenem-sensitive Escherichia coli 17-16 assessed as reduction in bacterial growth in the presence of Avibactam; assay type: functional
Escherichia coli [35] = assay: Ratio of MBC to MIC for Escherichia coli ATCC 25922 assessed as reduction in bacterial growth in the presence of Avibactam; assay type: functional
Klebsiella pneumoniae [36] = assay: Ratio of MBC to MIC for ESBLs positive Carbapenem-sensitive Klebsiella pneumoniae 17-12 assessed as reduction in bacterial growth in the presence of Avibactam; assay type: functional
Escherichia coli [37] = assay: Antibacterial activity against ESBLs positive Carbapenem-sensitive Escherichia coli 17-3 assessed as reduction in bacterial growth in the presence of Avibactam; assay type: functional
Klebsiella aerogenes [38] = assay: Ratio of MBC to MIC for Enterobacter aerogenes 17-3 assessed as reduction in bacterial growth; assay type: functional
Enterobacter cloacae [39] = assay: Antibacterial activity against Enterobacter cloacae 17-3 assessed as reduction in bacterial growth
Escherichia coli [40] = assay: Antibacterial activity against ESBLs positive Carbapenem-sensitive Escherichia coli 17-14 assessed as reduction in bacterial growth in the presence of Avibactam; assay type: functional
Acinetobacter baumannii [41] = assay: Bactericidal activity against Carbapenem- resistant Acinetobacter baumannii 17-3 assessed as reduction in bacterial growth; assay type: functional
Pseudomonas aeruginosa [42] = assay: Antibacterial activity against Carbapenem- resistant Pseudomonas aeruginosa 17-1 assessed as reduction in bacterial growth

## Nc1nc(/C(=N/OCc2cc(=O)c(O)cn2O)C(=O)N[C@@H]2C(=O)N3C(C(=O)O)=CCS[C@H]23)cs1
Pseudomonas aeruginosa [1]
  Ratio: 8
Pseudomonas aeruginosa [2]
  Ratio: 4
Klebsiella aerogenes [3]
  Ratio: 2
Klebsiella aerogenes [4]
  Ratio: 1
Enterobacter cloacae [5]
  MIC: 1 µg/mL
Klebsiella pneumoniae [6]
  MIC: ≤ 0.03 µg/mL
Escherichia coli [7]
  MIC: 0.5 µg/mL
Escherichia coli [8]
  Ratio: >16
Pseudomonas aeruginosa [9]
  Ratio: 4
Enterobacter cloacae [10]
  Ratio: 1
Enterobacter cloacae [11]
  Ratio: 2
Enterobacter cloacae [12]
  MIC: 8 µg/mL (≈ 15.7 µM)
Klebsiella pneumoniae [13]
  Ratio: 1
Klebsiella pneumoniae [14]
  MIC: 1 µg/mL
Klebsiella pneumoniae [15]
  Ratio: 1
Klebsiella aerogenes [16]
  Ratio: 2
Escherichia coli [17]
  MIC: 0.25 µg/mL
Klebsiella pneumoniae [18]
  Ratio: 2
Escherichia coli [19]
  MIC: 0.06 µg/mL
Escherichia coli [20]
  MIC: 4 µg/mL (≈ 7.87 µM)
Escherichia coli [21]
  Ratio: 2
Pseudomonas aeruginosa [22]
  Ratio: 4
Escherichia coli [23]
  Ratio: >16
Escherichia coli [24]
  Ratio: 1
Pseudomonas aeruginosa [25]
  Ratio: 2
Klebsiella aerogenes [26]
  Ratio: 1
Klebsiella pneumoniae [27]
  Ratio: 1
Klebsiella pneumoniae [28]
  MIC: ≤ 0.03 µg/mL
Escherichia coli [29]
  MIC: 0.5 µg/mL
Enterobacter cloacae [30]
  MIC: 0.5 µg/mL
Pseudomonas aeruginosa [31]
  Ratio: 2
Klebsiella pneumoniae [32]
  MIC: ≤ 0.03 µg/mL
Acinetobacter baumannii [33]
  Ratio: >8
Escherichia coli [34]
  MIC: 0.5 µg/mL
Escherichia coli [35]
  Ratio: 2
Klebsiella pneumoniae [36]
  Ratio: 1
Escherichia coli [37]
  MIC: 0.125 µg/mL
Klebsiella aerogenes [38]
  Ratio: 1
Enterobacter cloacae [39]
  MIC: 64 µg/mL (≈ 126 µM)
Escherichia coli [40]
  MIC: 0.25 µg/mL

## CC(C)(O/N=C(\C(=O)N[C@@H]1C(=O)N2C(C(=O)[O-])=C(C[n+]3ccccc3)CS[C@H]12)c1csc(N)n1)C(=O)O [CEFTAZIDIME]
Acinetobacter baumannii [41]
  MBC: 64 µg/mL (≈ 117 µM)
Pseudomonas aeruginosa [42]
  MIC: 32 µg/mL (≈ 58.5 µM)
